Test results reported in ChEMBL document CHEMBL1201862, “PubChem BioAssay data set” (2004).
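A five-concentration, 48-hour dose response in 96-well plates underlies each endpoint, interpolated linearly between surrounding concentrations. GI50 is the concentration that inhibits growth by half.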 Activity calls are given as the source filed them. No stated cut-off is given here; in the data, active = GI50 up to about 1.1 µM and inactive = higher.

Legend:
Test in all cases: NCI-60 cell line screen, 48 h
IGROV-1 = test system: IGROV-1
OVCAR-3 = test system: OVCAR-3
T47D = test system: T47D
EKVX = test system: EKVX
Malme-3M = test system: Malme-3M
M14 = test system: M14
OVCAR-4 = test system: OVCAR-4
SK-MEL-28 = test system: SK-MEL-28
TK-10 = test system: TK-10
LOX IMVI = test system: LOX IMVI
786-0 = test system: 786-0
SK-MEL-5 = test system: SK-MEL-5
OVCAR-5 = test system: OVCAR-5
NCI/ADR-RES = test system: NCI/ADR-RES
HOP-92 = test system: HOP-92
SK-MEL-2 = test system: SK-MEL-2
SN12C = test system: SN12C
SR = test system: SR
MDA-MB-435 = test system: MDA-MB-435
HCC 2998 = test system: HCC 2998

| Structure (SMILES) | GI50 (IGROV-1) | GI50 (OVCAR-3) | GI50 (T47D) | GI50 (EKVX) | GI50 (Malme-3M) | GI50 (M14) | GI50 (OVCAR-4) | GI50 (SK-MEL-28) | GI50 (TK-10) | GI50 (LOX IMVI) | GI50 (786-0) | GI50 (SK-MEL-5) | GI50 (OVCAR-5) | GI50 (NCI/ADR-RES) | GI50 (HOP-92) | GI50 (SK-MEL-2) | GI50 (SN12C) | GI50 (SR) | GI50 (MDA-MB-435) | GI50 (HCC 2998) |
| --- | --- | --- | --- | --- | --- | --- | --- | --- | --- | --- | --- | --- | --- | --- | --- | --- | --- | --- | --- | --- |
| CC(C)C(O)(C(C)C)C(C)C | > 100 µM (inactive) | > 100 µM (inactive) | > 100 µM (inactive) | > 100 µM (inactive) | > 100 µM (inactive) | > 100 µM (inactive) | > 100 µM (inactive) | > 100 µM (inactive) | > 100 µM (inactive) | > 100 µM (inactive) | > 100 µM (inactive) | > 100 µM (inactive) | > 100 µM (inactive) | > 100 µM (inactive) | > 100 µM (inactive) | > 100 µM (inactive) | > 100 µM (inactive) | > 100 µM (inactive) | > 100 µM (inactive) |  |
| CC(=O)OCC1=CC2OC(=O)C3=COC(OC4OC(CO)C(O)C(O)C4O)C1C32 (stereo unspecified) | > 100 µM (inactive) | > 100 µM (inactive) | > 100 µM (inactive) | > 100 µM (inactive) |  | > 100 µM (inactive) | > 100 µM (inactive) | > 100 µM (inactive) | > 100 µM (inactive) | > 100 µM (inactive) | > 100 µM (inactive) | > 100 µM (inactive) | > 100 µM (inactive) | > 100 µM (inactive) | > 100 µM (inactive) | > 100 µM (inactive) | > 100 µM (inactive) | 57 µM (inactive) | > 100 µM (inactive) | > 100 µM (inactive) |
| S=C(Nc1c2c(nc3ccccc13)CCCC2)Nc1c2c(nc3ccccc13)CCCC2 | > 100 µM (inactive) | > 100 µM (inactive) | > 100 µM (inactive) | > 100 µM (inactive) | > 100 µM (inactive) | > 100 µM (inactive) | > 100 µM (inactive) | > 100 µM (inactive) | > 100 µM (inactive) |  | > 100 µM (inactive) | > 100 µM (inactive) | > 100 µM (inactive) | > 100 µM (inactive) |  | > 100 µM (inactive) | > 100 µM (inactive) | > 100 µM (inactive) | > 100 µM (inactive) | > 100 µM (inactive) |
| CCCCCCCCCCCCCCCCOC[C@H](COC(c1ccccc1)(c1ccccc1)c1ccccc1)O[PH](=S)OC (stereo partly specified) | > 100 µM (inactive) | > 100 µM (inactive) | > 100 µM (inactive) | > 100 µM (inactive) |  | > 100 µM (inactive) |  |  | > 100 µM (inactive) | > 100 µM (inactive) | > 100 µM (inactive) | > 100 µM (inactive) | > 100 µM (inactive) | > 100 µM (inactive) | > 100 µM (inactive) | > 100 µM (inactive) | > 100 µM (inactive) | > 100 µM (inactive) | > 100 µM (inactive) |  |
| COC(=O)c1cnc(Cl)c([N+](=O)[O-])c1 | 2.79 µM (inactive) | 14.8 µM (inactive) | 2.09 µM (inactive) | 1.8 µM (inactive) |  | 14 µM (inactive) | 21.1 µM (inactive) | 17.1 µM (inactive) | 16.3 µM (inactive) | 1.93 µM (inactive) | 3.57 µM (inactive) | 14.1 µM (inactive) | 17.7 µM (inactive) | 22.4 µM (inactive) | 2.17 µM (inactive) | 16.1 µM (inactive) | 12.9 µM (inactive) | 1.9 µM (inactive) | 6.22 µM (inactive) | 8.34 µM (inactive) |
| C=C(Br)CN(C(C)=O)C1CCCCC1 | > 100 µM (inactive) | > 100 µM (inactive) | > 100 µM (inactive) | > 100 µM (inactive) | > 100 µM (inactive) | > 100 µM (inactive) | > 100 µM (inactive) | > 100 µM (inactive) | > 100 µM (inactive) | > 100 µM (inactive) | > 100 µM (inactive) | > 100 µM (inactive) | > 100 µM (inactive) | > 100 µM (inactive) |  | > 100 µM (inactive) | > 100 µM (inactive) | > 100 µM (inactive) | > 100 µM (inactive) | > 100 µM (inactive) |
| CC(=O)O[C@H]1C(=O)[C@@]2(C)[C@H]([C@H](OC(=O)c3ccncc3)[C@]3(O)C[C@H](OC(=O)[C@H](O)[C@@H](NC(=O)c4ccccc4)c4ccccc4)C(C)=C1C3(C)C)[C@]1(OC(C)=O)CO[C@@H]1C[C@@H]2O | 2.44 µM (inactive) | 1.25 µM (inactive) | > 5.94 µM (inactive) | > 25 µM (inactive) | 2.31 µM (inactive) | 7.06 µM (inactive) | > 25 µM (inactive) | > 11.6 µM (inactive) | > 25 µM (inactive) | 1.42 µM (inactive) | 6.81 µM (inactive) | 2.3 µM (inactive) | 10 µM (inactive) | > 25 µM (inactive) |  | 6.71 µM (inactive) | > 16.4 µM (inactive) | 1.09 µM (active) | 0.714 µM (active) | 3.24 µM (inactive) |
| O=c1[nH]c(Nc2nc3ccccc3[nH]2)nc(O)c1Cc1ccccc1 | > 100 µM (inactive) |  | > 100 µM (inactive) | > 100 µM (inactive) | > 100 µM (inactive) | > 100 µM (inactive) | > 100 µM (inactive) | > 100 µM (inactive) | > 100 µM (inactive) |  | 61.5 µM (inactive) | > 100 µM (inactive) |  | > 100 µM (inactive) | 0.193 µM (active) | > 100 µM (inactive) | > 100 µM (inactive) | > 100 µM (inactive) | > 100 µM (inactive) |  |
| CC(=O)Nc1ccc(N2C(=O)CS(=O)(=O)C2c2cccc(Oc3ccccc3)c2)cc1 (stereo unspecified) |  | 17.5 µM (inactive) | 15.9 µM (inactive) | 15.4 µM (inactive) | 20.4 µM (inactive) | 18 µM (inactive) | 14.2 µM (inactive) | 21.9 µM (inactive) | 20.4 µM (inactive) | 15.7 µM (inactive) | 17.1 µM (inactive) | 14.7 µM (inactive) | 17.6 µM (inactive) | 17.6 µM (inactive) | 13.8 µM (inactive) | 19.2 µM (inactive) | 15.1 µM (inactive) | 20.3 µM (inactive) | 21.2 µM (inactive) |  |
| N=C(N)N/N=C/c1c(-c2ccccc2[N+](=O)[O-])nc2sccn12 | 37.6 µM (inactive) | 24.9 µM (inactive) | 18.3 µM (inactive) | 43.8 µM (inactive) | 15.7 µM (inactive) | 16.7 µM (inactive) | 45.9 µM (inactive) | 30.8 µM (inactive) | 23.6 µM (inactive) | 19.9 µM (inactive) | 19.5 µM (inactive) | 16.9 µM (inactive) | 30.7 µM (inactive) | > 100 µM (inactive) | 27.1 µM (inactive) | 15.1 µM (inactive) | 32.5 µM (inactive) | 14.4 µM (inactive) | 17.1 µM (inactive) |  |
| Cc1cccc(C)c1NC(=O)C(=O)C(c1ccccc1Cl)S(=O)(=O)Cc1ccccc1Cl (stereo unspecified) | > 62.4 µM (inactive) | > 100 µM (inactive) | > 100 µM (inactive) | > 100 µM (inactive) |  | > 100 µM (inactive) | > 100 µM (inactive) | > 100 µM (inactive) | > 61.2 µM (inactive) | > 100 µM (inactive) | 27.7 µM (inactive) | > 100 µM (inactive) | > 100 µM (inactive) | > 100 µM (inactive) | 18.2 µM (inactive) | > 83.8 µM (inactive) | > 85.5 µM (inactive) | > 100 µM (inactive) | > 100 µM (inactive) | > 100 µM (inactive) |
